Reference: the supplement of paper PMC10307832

Key:
Test in all cases: relative viability (nuclei count vs DMSO), 5 days (fraction); higher = more cells survive
[1] = compound: CN(c1ncccc1CNc1nc(Nc2ccc3c(c2)CC(=O)N3)ncc1C(F)(F)F)S(C)(=O)=O + Cc1nc(NC(=O)N2CCC[C@H]2C(N)=O)sc1-c1ccnc(C(C)(C)C(F)(F)F)c1 [Alpelisib] (partner 2 µM)
In short: (§1)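 Lung cancer cell lines, seeded in 1536-well plates, were treated the following day by pin tool with a single drug or with five library-drug doses (not always all listed) in √10 steps on top of a fixed anchor-drug dose. Cells were fixed and nuclei stained in one step after 5 days, and nuclei were counted. Relative viability is the nuclei count for treated wells divided by that for vehicle wells, reported as medians of duplicate plates.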

[2] = compound: CN(c1ncccc1CNc1nc(Nc2ccc3c(c2)CC(=O)N3)ncc1C(F)(F)F)S(C)(=O)=O + CC(C)C[C@H](NC(=O)[C@H](Cc1ccccc1)NC(=O)c1cnccn1)B(O)O [Bortezomib] (partner 0.002 µM)
In short: as §1

[3] = compound: CN(c1ncccc1CNc1nc(Nc2ccc3c(c2)CC(=O)N3)ncc1C(F)(F)F)S(C)(=O)=O + CC(=O)c1c(C)c2cnc(Nc3ccc(N4CCNCC4)cn3)nc2n(C2CCCC2)c1=O [Palbociclib] (partner 0.5 µM)
In short: as §1

[4] = compound: CN(c1ncccc1CNc1nc(Nc2ccc3c(c2)CC(=O)N3)ncc1C(F)(F)F)S(C)(=O)=O + Cc1nc(Nc2ncc(C(=O)Nc3c(C)cccc3Cl)s2)cc(N2CCN(CCO)CC2)n1 [Dasatinib] (partner 0.075 µM)
In short: as §1

Cell Line	relative viability ([1]; first compound 0.01 µM)	relative viability ([1]; first compound 0.03162 µM)	relative viability ([1]; first compound 0.1 µM)	relative viability ([1]; first compound 0.3162 µM)	relative viability ([1]; first compound 1 µM)	relative viability ([2]; first compound 0.01 µM)	relative viability ([2]; first compound 0.03162 µM)	relative viability ([2]; first compound 0.1 µM)	relative viability ([2]; first compound 0.3162 µM)	relative viability ([2]; first compound 1 µM)	relative viability ([3]; first compound 0.01 µM)	relative viability ([3]; first compound 0.03162 µM)	relative viability ([3]; first compound 0.1 µM)	relative viability ([3]; first compound 0.3162 µM)	relative viability ([3]; first compound 1 µM)	relative viability ([4]; first compound 0.01 µM)	relative viability ([4]; first compound 0.03162 µM)	relative viability ([4]; first compound 0.1 µM)	relative viability ([4]; first compound 0.3162 µM)	relative viability ([4]; first compound 1 µM)
NCI-H1437	0.973	1.13	1.05	0.941	0.788	0.612	0.462	0.527	0.514	0.405	0.348	0.297	0.265	0.269	0.209	0.401	0.391	0.426	0.204	0.427
NCI-H2009	1.12	1.21	1.17	1.17	1.1	1.32	1.04	1.02	0.991	0.955	0.207	0.179	0.251	0.202	0.191	0.23	0.217	0.244	0.229	0.238
NCI-H1651	0.992	1	0.873	0.899	0.916	0.936	1.04	0.939	0.885	0.9	0.527	0.529	0.529	0.487	0.5	0.47	0.374	0.38	0.316	0.282
LCLC-103H	1.04	0.982	0.868	0.872	0.897	1.13	1.05	1.18	0.937	1.02	0.499	0.428	0.5	0.471	0.484	0.47	0.36	0.481	0.442	0.332
NCI-H1666	1.11	0.72	0.877	0.79	0.686	0.887	0.678	0.668	0.708	0.589	0.696	0.614	0.627	0.639	0.543	0.804	0.778	0.961	0.935	0.603
NCI-H1734	0.665	0.778	0.666	0.631	0.641	1.06	1.1	0.996	0.857	0.949	0.35	0.327	0.345	0.348	0.304	0.423	0.436	0.399	0.339	0.34
EPLC-272H	0.811	1.1	0.781	0.885	0.927	0.972	0.774	0.854	0.944	0.758	0.366	0.357	0.358	0.353	0.299	0.338	0.27	0.218	0.209	0.135
NCI-H2023	0.521	0.677	0.668	0.59	0.507	0.985	1.02	0.963	0.945	0.938	0.382	0.405	0.376	0.339	0.229	0.476	0.588	0.428	0.432	0.448
BEN	1.02	1.2	1.02	1.05	1.03	0.821	0.772	0.993	0.865	0.856	0.461	0.472	0.48	0.499	0.434	0.319	0.312	0.272	0.289	0.267
COR-L 105	1.06	1.16	1.13	0.887	0.872	0.889	0.733	0.835	0.814	0.595	0.426	0.411	0.41	0.427	0.376	0.274	0.25	0.343	0.282	0.288
ABC-1	0.777	1.22	1.36	0.963	0.913	0.308	0.273	0.396	0.376	0.329	0.608	0.609	0.725	0.814	0.676	0.574	0.633	0.559	0.54	0.587
HCC-15	0.849	0.892	0.819	0.785	0.779	1.04	1	0.898	0.88	0.829	0.709	0.747	0.65	0.609	0.583	0.541	0.602	0.497	0.428	0.408
PC-3 [JPC-3]	0.993	1.14	0.941	1.02	0.952	0.853	0.801	0.827	0.855	0.829	0.606	–	0.529	0.453	0.455	0.988	0.949	0.892	0.911	0.953
NCI-H1993	0.739	0.632	0.612	0.663	0.674	0.993	1.22	1.11	1.04	0.907	0.479	0.64	0.669	0.652	0.597	0.601	0.48	0.506	0.78	0.593
NCI-H1915	1.07	1.1	1.03	1.05	1.02	0.988	1.05	1.01	0.888	0.963	0.498	0.532	0.58	0.525	0.509	0.296	0.269	0.292	0.295	0.309
RERF-LC-KJ	0.838	0.955	0.813	0.765	0.825	1.08	1.23	1.11	1.13	0.999	1.17	1.15	1.09	1.03	1.02	0.767	0.809	0.708	0.723	0.743
